Assay results taken from patent US6087358A (priority 1997, dated 2000).
In brackets after ≈: the same amount, converted by molar mass. Read-outs that look alike come from different tables or passages of the source.

Columns and labels:
[1] = test system: Mycobacterium bovis BCG (recombinant strain); experiment: microbe, parasite or virus in culture; assay type: cell-based; conditions: 6 days 37° C.; for MIC: Mycobacterium tuberculosis variant bovis BCG, BCG, 144 h, read-out: MIC, column A, 3(S) compounds
[2] = test system: Mycobacterium tuberculosis (rMTB); experiment: In vivo antimycobacterial activity against M. tuberculosis (rMTB) in lungs of mice; set-up: species or system Mycobacterium tuberculosis Erdman, in female BALB/c mice; conditions: 25 mg/kg daily oral gavage, CM-2, 10 days, control 117,258 (PA-824, 636, 1297) or 22,751 (others)
[3] = test system: Mycobacterium tuberculosis (rMTB); experiment: In vivo antimycobacterial activity against M. tuberculosis (rMTB) in spleens of mice; set-up: species or system Mycobacterium tuberculosis Erdman, in female BALB/c mice; conditions: 25 mg/kg daily oral gavage, CM-2, 10 days, control 422,866 (PA-824, 636, 1297) or 362,274 (others)
Helicobacter pylori = experiment: In vitro inhibition of Helicobacter pylori (broth microdilution MIC); conditions: for MIC: Helicobacter pylori
[4] = test system: Helicobacter pylori Strain 4187E; experiment: In vivo activity against Helicobacter pylori strain 4187E in mice; set-up: species or system in outbred female white mice; conditions: oral gavage, four days
Excerpt: Outbred female white mice (20 grams) were infected by oral gavage with 10^7 -10^8 colony forming units of H. pylori strain 4187E (originally isolated from a patient with a duodenal ulcer). […] Treatment continued for four days. Clarithromycin, administered at the same concentration and for the same duration, was included as a positive control. One group of animals also received an equal volume of formulation vehicle alone, to provide a negative control.
Five days after cessation of treatment, all animals were sacrificed, the stomachs were removed, opened, and the contents washed out. The entire mucosal surface was then spread evenly over the surface of an agar plate containing antibiotics appropriate for the prevention of growth of microorganisms other than Helicobacter spp. After seven days incubation under microaeropilic conditions at 37° C., culture plates were evaluated for bacterial growth.

[5] = test system: Clostridium difficile ATCC 17857; experiment: In vitro inhibition of Clostridium difficile (Oxyrase broth microdilution MIC); assay type: cell-based; conditions: Clostridioides difficile, ATCC17857; Clostridium difficile ATCC 17857, Oxyrase broth; read-out: MIC, column D, 3(S) compounds
[6] = test system: Mycobacterium tuberculosis H37Rv (sensitive strain); experiment: MIC as determined by the BACTEC method, sensitive strain; assay type: cell-based; conditions: M. tuberculosis H37Rv (sensitive strain), read-out: MIC, column B, 3(S) compounds
Cryptosporidium parvum = experiment: Inhibition of Cryptosporidium parvum (ELISA, infected HCT-8 monolayers); assay type: cell-based; conditions: Cryptosporidium parvum, HCT-8, 48 h, read-out: Percent Inhibition of C. parvum
Method: Susceptibility testing against Cryptosporidium was performed according to published procedures (K. Woods, M. Nesterenko, S. Upton, "Development of a microtiter ELISA to quantify development of Cryptosporidium parvum in vitro," FEMS Microbiology Letters, 128:89-94 (1995).
Compounds were solubilized to a concentration of 100 mg/mL in 100% DMSO. DMSO solutions of test compounds were added to the test wells of a microplate at a volume that produced a final concentration of DMSO of 0.2%. Monolayers of human ileocecal adenocarcinoma cells (HCT-8) were prepared by growth in RPMI 1640 medium in 96-Well tissue culture trays for 24 h. Oocysts of C. parvum were allowed to excyst in 10% bleach for 10 min prior to use. Monolayers were then infected with 2-3×10^4 oocysts/well and incubated in the presence or absence of compound for 48 h at 35° C. in 5% CO2 and 95% humidity. Background consisted of wells containing killed oocysts (freeze thaw cycle following 30 sec exposure to liquid nitrogen). Growth control wells were infected with 2-3×10^4 oocysts/well in the absence of test compounds. At the end of incubation, wells were washed and fixed by adding 100 uL of 4% formalin in phosphate buffered saline (pH 7.3) per well for 2 h. After blocking with 1% bovine serum albumin, and 0.002% Tween 20, 50 uL of rat anti-Cryptosporidium membrane protein antiserum was added. After 30 min, wells were washed in PBS and 50 uL of secondary antibody (goat anti-rat antibody conjugated with horseradish peroxidase) was added. After 20-30 min, wells were washed again in PBS and 50 uL of 3,3',5,5'-tetramethylbenzidine solution was added. Plates were allowed to develop for 10-15 min and the optical density was read at 630 nm. Percent inhibition was calculated by comparing the optical density of the drug treated group to that of the untreated control.

Helicobacter felis = experiment: In vivo activity against Helicobacter felis in mice (urease test of stomach biopsy); set-up: species or system in female CD-1 mice; conditions: 50 mg/kg three times daily oral gavage, CM-2, four days; vehicle and untreated 100
Method: Female CD-1 mice weighing 30 grams were infected by oral gavage with 10^8 -10^9 colony forming units of H. felis. This infection process was repeated two, and four days, thereafter. Colonization of the stomach was allowed to occur over a seven day period. Animals were segregated into groups of five, and were treated three times daily by oral gavage with 50 mg/kg of test drugs prepared in the CM-2 formulation vehicle (Example 52). Treatment continued for four days. One group of animals received an equal volume of formulation vehicle alone, to ensure that the vehicle had no effect on the Helicobacter infection. A separate untreated control group was also included.
All animals were then sacrificed, the stomachs were removed, opened, and the contents washed out. A five millimeter diameter biopsy was removed, and transferred to a urease test solution containing a pH-sensitive dye, which was then incubated at 37° C. incubator for 24 hours. A blue or purple coloration in this test solution signifies a positive reaction, indicating the continued presence of viable Helicobacter bacteria; a negative result is indicated by a yellow coloration. Viable Helicobacter bacteria produce a urease enzyme which converts urea, of which there is an abundant supply in the stomach (from saliva and gastric juices), into bicarbonate and ammonia, which are strong bases. This mechanism is considered to provide conditions more amenable to the survival of Helicobacter in the otherwise acidic conditions prevalent in the stomach.

[7] = 72 h, read-out: MIC against Helicobacter pylori, strain 17 (Table 5A)
[8] = 72 h, read-out: MIC against Helicobacter pylori, strain 19 (Table 5A)
[9] = 72 h, read-out: MIC against Helicobacter pylori, strain 20 (Table 5A)
[10] = 72 h, read-out: MIC against Helicobacter pylori, strain 40 (Table 5A)
[11] = 72 h, read-out: MIC against Helicobacter pylori, strain 43 (Table 5A)
[12] = 72 h, read-out: MIC against Helicobacter pylori, strain 76 (Table 5A)
[13] = ATCC43504, 72 h, read-out: MIC against Helicobacter pylori, strain ATCC 43504 (Table 5A)

Compound | Average RLUs, M. tuberculosis (rMTB) in lungs [2] | Average RLUs, M. tuberculosis (rMTB) in spleens [3] | MIC (Helicobacter pylori; [7]) [µg/mL] | MIC (Helicobacter pylori; [8]) [µg/mL] | MIC (Helicobacter pylori; [9]) [µg/mL] | MIC (Helicobacter pylori; [10]) [µg/mL] | MIC (Helicobacter pylori; [11]) [µg/mL] | MIC (Helicobacter pylori; [12]) [µg/mL] | MIC (Helicobacter pylori; [13]) [µg/mL] | % Eradication ([4]; twice daily 5 mg/kg) [%] | % Eradication ([4]; twice daily 50 mg/kg) [%] | MIC [1] [µg/mL] | MIC [5] [µg/mL] | also measured
4-Bromobenzyl Carbamate of 3S 3-Hydroxy-6-nitro-3,4-dihydro-[2-1b]imidazopyran [PA-1324] | 1,612 RLUs | 85,130 RLUs | – | – | – | – | – | – | – | – | – | – | – | MIC, column A, 3(S) compounds [1]: 0.015
CC[C@H]1OC(=O)[C@H](C)[C@@H](O[C@H]2C[C@@](C)(OC)[C@@H](O)[C@H](C)O2)[C@H](C)[C@@H](O[C@@H]2O[C@H](C)C[C@H](N(C)C)[C@H]2O)[C@](C)(OC)C[C@@H](C)C(=O)[C@H](C)[C@@H](O)[C@]1(C)O [Clarithromycin, reference compound] | – | – | 0.016 (≈ 0.0214 µM) | 8 (≈ 10.7 µM) | 8 (≈ 10.7 µM) | 0.016 (≈ 0.0214 µM) | 0.008 (≈ 0.0107 µM) | 0.032 (≈ 0.0428 µM) | 0.06 (≈ 0.0802 µM) | 0 | 100 | – | – | MICs of control drugs relative to expected values (Helicobacter pylori; H. pylori ATCC 43): within the expected values; MIC (Helicobacter pylori; 72 h, read-out: MIC against Helicobacter pylori, strain B40, Met-S, Clar-S (Table 5B)): < 0.015 µg/mL; MIC (Helicobacter pylori; 72 h, read-out: MIC against Helicobacter pylori, strain B76, Met-R, Clar-S (Table 5B)): < 0.015 µg/mL; MIC (Helicobacter pylori; 72 h, read-out: MIC against Helicobacter pylori, strain C1649, Met-R, Clar-R (Table 5B)): > 4 µg/mL; MIC (Helicobacter pylori; 72 h, read-out: MIC against Helicobacter pylori, strain C11403, Met-S, Clar-R (Table 5B)): 4 µg/mL (≈ 5.35 µM); MIC (Helicobacter pylori; 72 h, read-out: MIC against Helicobacter pylori, strain C19765 (Table 5B)): < 0.015 µg/mL; MIC (Helicobacter pylori; 72 h, read-out: MIC against Helicobacter pylori, strain RD26, Met-S, Clar-S (Table 5B)): 0.03 µg/mL (≈ 0.0401 µM); MIC (Helicobacter pylori; 72 h, read-out: MIC against Helicobacter pylori, strain rd26, Met-S, Clar-S (Table 5B)): 0.03 µg/mL (≈ 0.0401 µM); MIC (Helicobacter pylori; ATCC43504, 72 h, read-out: MIC against Helicobacter pylori, strain ATCC 43504, Met-R, Clar-S (Table 5B)): 0.03 µg/mL (≈ 0.0401 µM); MIC (Helicobacter pylori; ATCC43526, 72 h, read-out: MIC against Helicobacter pylori, strain ATCC 43526, Met-R, Clar-S (Table 5B)): < 0.015 µg/mL; MIC (Helicobacter pylori; ATCC43579, 72 h, read-out: MIC against Helicobacter pylori, strain ATCC 43579, Met-S, Clar-S (Table 5B)): < 0.015 µg/mL; MIC (Helicobacter pylori; ATCC43629, 72 h, read-out: MIC against Helicobacter pylori, strain ATCC 43629, Met-S, Clar-S (Table 5B)): 0.03 µg/mL (≈ 0.0401 µM)
CC(C)=CCC/C(C)=C/CO[C@@H]1COc2nc([N+](=O)[O-])cn2C1 [PA-626] | – | – | – | – | – | – | – | – | – | – | – | 0.5 (≈ 1.56 µM) | 0.8 (≈ 2.49 µM) | MIC [6]: 0.13 µg/mL (≈ 0.405 µM)
O=[N+]([O-])c1cn2c(n1)OC[C@@H](OCc1ccc(C(F)(F)F)cc1)C2 [PA-636, 3S 4-(Trifluromethyl)benzyloxy-6-nitro-2H-3,4-dihydo-[2-1b]imidazopyran] | 5,790 RLUs | 91,377 RLUs | – | – | – | – | – | – | – | – | – | 0.5 (≈ 1.46 µM) | 3.12 (≈ 9.09 µM) | inhibition at 25 µg/mL (Cryptosporidium parvum; 25 μg/mL): 14.5%; inhibition at 50 µg/mL (Cryptosporidium parvum; 50 μg/mL): 9.4%; inhibition at 100 µg/mL (Cryptosporidium parvum; 100 μg/mL): 21%; inhibition at 200 µg/mL (Cryptosporidium parvum; 200 μg/mL): 39%
CCCCc1ccc(CO[C@@H]2COc3nc([N+](=O)[O-])cn3C2)cc1 [PA-822] | – | – | 25 (≈ 75.4 µM) | 0.2 (≈ 0.604 µM) | 0.2 (≈ 0.604 µM) | 0.2 (≈ 0.604 µM) | 0.4 (≈ 1.21 µM) | 6.25 (≈ 18.9 µM) | > 25 | 0 | 0 | 0.06 (≈ 0.181 µM) | 12.5 (≈ 37.7 µM) | % Eradication ([4]; once daily 25 mg/kg): 0%; % Survival (Helicobacter felis): 100%
